# Experimental data reported in patent EP0597838B1, “VACCINE COMPOSITIONS” (NORTH AMERICAN VACCINE, INC., priority 1990, dated 1991).
# Where a name gives a salt, the structure may show the parent alone.
# Assays:
# [1] = tested on: hepatitis B surface antigen; experiment: Antibody response to hepatitis B surface antigen as a function of octadecyl tyrosine dose, radioimmunoassay of sera; assay type: in vivo, BALB/c mice; settings: 80 ng HBsAg, boost 50 ng, pre-bleed value 11.5
# Protocol: (§1) BALB/c mice were immunized with 50 ng of hepatitis B surface antigen in the presence of adjuvant for the non-control mice and in the absence of adjuvant for the control mice. The hepatitis B surface antigen was obtained from 3T3 cells transfected with the gene for the surface antigen. 100 µg of octadecyl amino acid was complexed with the polypeptide as described in Example 2. This mixture, in a total volume of 0.1 ml, was injected on day 1 using an intramuscular route, and the mice were bled on days 7, 14, 21, 28, 35, 42 and 61. The mice were boosted with 35 ng of the polypeptide on day 21.
# (§2) The antibody concentration in the sera was determined by radioimmunoassay. The antibody concentration was estimated by comparison with a standard curve obtained using a monoclonal antibody.
# The immunizations were carried out in the presence of adjuvant for the non-control mice and in the absence of adjuvant for the control mice.
# [2] = C.L. Penney et al, Vaccine 4, 1986; cited from earlier work
# [3] = tested on: hepatitis B surface antigen; experiment: Isotype of the anti-hepatitis B surface antigen antibody response, radioimmunoassay with tritium labelled anti-mouse isotype antibody; assay type: in vivo, mice; settings: for IgE, radioactivity of bound isotype antibody / IgG1, radioactivity of bound isotype antibody / IgG2a, radioactivity of bound isotype antibody / IgG2b, radioactivity of bound isotype antibody / IgG3, radioactivity of bound isotype antibody / IgM, radioactivity of bound isotype antibody: immunization on day 1 and 21, 50 µg of octadecyl tyrosine
# Protocol: The protocol was as described in Example 5, Section 2 (mice) except that 50 µg of octadecyl tyrosine was used for both the primary and secondary (day 21) immunizations. The isotype of the antibody response was determined by radioimmunoassay. Use was made of tritium labelled anti-mouse isotype antibody. Titration was undertaken by incubation of samples on plates coated with immunoaffinity purified hepatitis B surface antigen.
# [4] = tested on: HIV-1 polypeptide, residues 503-535; experiment: Antibody response to HIV-1 polypeptide 503-535 coupled to KLH in mice, radioimmunoassay of sera; assay type: in vivo, BALB/c mice; settings: 100 µg polypeptide-KLH on day 1 and day 21
# Protocol: 1) HIV Peptide Sequence The peptide sequence of the HIV was as follows. Product: BC-101 503- H-[…] 535 M.W. 3585.14 (Back-bone) 2) Experiments in mice BALB/c mice were immunized with 100 µg of chemically synthesized polypeptide, corresponding to the amino acid sequence of residues 503-535 of HIV-1, coupled to Keyhole Limpet Hemocyanin (KLH). Octadecyl tyrosine hydro-chloride, 10 µg-100 µg, was complexed with the polypeptide as described in Example 2. This mixture, in a total volume of 0.1 ml, was injected on day 1, and again on day 21. The mice were bled on days 7, 14, 21, 28 and 35. The antibody concentration in the sera was determined by radioimmunoassay. The antibody concentration was estimated by comparison with a standard curve obtained using a polyclonal antibody.
# [5] = tested on: hepatitis B surface antigen; experiment: Antibody response to hepatitis B surface antigen with octadecyl amino acid immunoadjuvants, radioimmunoassay of sera; assay type: in vivo, BALB/c mice; settings: 50 ng HBsAg i.m. day 1, boost 35 ng day 21, 100 µg octadecyl amino acid
# Protocol: as §1, §2
# [6] = tested on: hepatitis B surface antigen; experiment: Antibody response to hepatitis B surface antigen as a function of octadecyl tyrosine dose, radioimmunoassay of sera; assay type: in vivo, BALB/c mice; settings: day 21, 80 ng HBsAg, boost 50 ng, pre-bleed value 11.5
smiles,measurement,setting,value
"CCCCCCCCCCCCCCCCCCOC(=O)C(N)Cc1ccc(O)cc1 (centres unmarked) [Octadecyl Tyrosine, octadecyl tyrosine hydrochloride]",Antibody response to hepatitis B surface antigen,"[1]; 10 µg adjuvant, day 7",611 CPM
same,Antibody response to hepatitis B surface antigen,"[1]; 10 µg adjuvant, day 14",2314 CPM
same,Antibody response to hepatitis B surface antigen,"[1]; 10 µg adjuvant, day 28",8403 CPM
same,Antibody response to hepatitis B surface antigen,"[1]; 10 µg adjuvant, day 35",10005 CPM
same,Antibody response to hepatitis B surface antigen,"[1]; 50 µg adjuvant, day 7",2064 CPM
same,Antibody response to hepatitis B surface antigen,"[1]; 50 µg adjuvant, day 14",846 CPM
same,Antibody response to hepatitis B surface antigen,"[1]; 50 µg adjuvant, day 28",18804 CPM
same,Antibody response to hepatitis B surface antigen,"[1]; 50 µg adjuvant, day 35",20616 CPM
same,Antibody response to hepatitis B surface antigen,"[1]; 100 µg adjuvant, day 7",1107 CPM
same,Antibody response to hepatitis B surface antigen,"[1]; 100 µg adjuvant, day 14",537 CPM
same,Antibody response to hepatitis B surface antigen,"[1]; 100 µg adjuvant, day 28",19679 CPM
same,Antibody response to hepatitis B surface antigen,"[1]; 100 µg adjuvant, day 35",13427 CPM
same,toxicity in animals,[2],non-toxic
same,"IgE, radioactivity of bound isotype antibody",[3]; day of bleed 14,33±10 cpm
same,"IgG1, radioactivity of bound isotype antibody",[3]; day of bleed 14,568±32 cpm
same,"IgG2a, radioactivity of bound isotype antibody",[3]; day of bleed 14,483±44 cpm
same,"IgG2b, radioactivity of bound isotype antibody",[3]; day of bleed 14,290±31 cpm
same,"IgG3, radioactivity of bound isotype antibody",[3]; day of bleed 14,144±19 cpm
same,"IgM, radioactivity of bound isotype antibody",[3]; day of bleed 14,347±37 cpm
same,"IgE, radioactivity of bound isotype antibody",[3]; day of bleed 35,55±33 cpm
same,"IgG1, radioactivity of bound isotype antibody",[3]; day of bleed 35,8030±155 cpm
same,"IgG2a, radioactivity of bound isotype antibody",[3]; day of bleed 35,12331±336 cpm
same,"IgG2b, radioactivity of bound isotype antibody",[3]; day of bleed 35,4710±115 cpm
same,"IgG3, radioactivity of bound isotype antibody",[3]; day of bleed 35,333±17 cpm
same,"IgM, radioactivity of bound isotype antibody",[3]; day of bleed 35,826±8 cpm
same,"IgE, radioactivity of bound isotype antibody",[3]; day of bleed 42,29±12 cpm
same,"IgG1, radioactivity of bound isotype antibody",[3]; day of bleed 42,6176±496 cpm
same,"IgG2a, radioactivity of bound isotype antibody",[3]; day of bleed 42,2271±215 cpm
same,"IgG2b, radioactivity of bound isotype antibody",[3]; day of bleed 42,1109±77 cpm
same,"IgG3, radioactivity of bound isotype antibody",[3]; day of bleed 42,165±24 cpm
same,"IgM, radioactivity of bound isotype antibody",[3]; day of bleed 42,545±87 cpm
same,levels of IgE antibodies,"[3]; in words, compared to the control without adjuvant",no significant increase
same,Anti-peptide antibody concentration,"[4]; 10 µg adjuvant, day 7",1.61 µg/mL
same,Anti-peptide antibody concentration,"[4]; 10 µg adjuvant, day 14",3.15 µg/mL
same,Anti-peptide antibody concentration,"[4]; 10 µg adjuvant, day 21",1.49 µg/mL
same,Anti-peptide antibody concentration,"[4]; 10 µg adjuvant, day 28",85.9 µg/mL
same,Anti-peptide antibody concentration,"[4]; 10 µg adjuvant, day 35",131.9 µg/mL
same,Anti-peptide antibody concentration,"[4]; 50 µg adjuvant, day 7",1.18 µg/mL
same,Anti-peptide antibody concentration,"[4]; 50 µg adjuvant, day 14",0.75 µg/mL
same,Anti-peptide antibody concentration,"[4]; 50 µg adjuvant, day 21",2.99 µg/mL
same,Anti-peptide antibody concentration,"[4]; 50 µg adjuvant, day 28",54.2 µg/mL
same,Anti-peptide antibody concentration,"[4]; 50 µg adjuvant, day 35",86.2 µg/mL
same,Anti-peptide antibody concentration,"[4]; 100 µg adjuvant, day 7",0.87 µg/mL
same,Anti-peptide antibody concentration,"[4]; 100 µg adjuvant, day 14",1.65 µg/mL
same,Anti-peptide antibody concentration,"[4]; 100 µg adjuvant, day 21",2.04 µg/mL
same,Anti-peptide antibody concentration,"[4]; 100 µg adjuvant, day 28",155.3 µg/mL
same,Anti-peptide antibody concentration,"[4]; 100 µg adjuvant, day 35",138.0 µg/mL
same,Anti-HBsAg antibody concentration,[5]; day 7,68 ng/mL
same,Anti-HBsAg antibody concentration,[5]; day 14,91 ng/mL
same,Anti-HBsAg antibody concentration,[5]; day 21,58 ng/mL
same,Anti-HBsAg antibody concentration,[5]; day 28,355 ng/mL
same,Anti-HBsAg antibody concentration,[5]; day 35,833 ng/mL
same,Anti-HBsAg antibody concentration,[5]; day 61,752 ng/mL
same,Antibody response to hepatitis B surface antigen,[6]; 10 µg adjuvant,342 CPM
same,Antibody response to hepatitis B surface antigen,[6]; 50 µg adjuvant,4000 CPM
same,Antibody response to hepatitis B surface antigen,[6]; 100 µg adjuvant,1279 CPM
